One test deals with NSPs (NE, PR3, CatG). In words: PD recovery study, bone marrow NSP activities (all three NSPs), C57BL/6 mice. Format: in vivo. The note with it: after 8 days of 5 mg/kg BID. How it is done: A PD recovery study was performed in female C57BL/6 mice dosed BID for 8 consecutive days. Mice were dosed by oral gavage either with vehicle (0 mg/kg) or 5 mg/kg brensocatib (BID; 10 mg/kg/day). After 8 consecutive days of dosing, the animals were maintained without further treatment until prescribed sacrifice (days: 1, 3, 6, 8, and 10 days post final dose). Plasma was collected from animals during the first 24 h of dosing at −0.5 (half-hour prior to dosing), 1, 8, 9, and 24 h post initial dose. Note that the 8- and 24-h plasma samples were prior to the afternoon dose and prior to the second day dose, respectively. Plasma was used for PK analysis via LC-MS/MS. […]
Bone marrow lysates prepared as described above were diluted and plated onto 96-well assay plates to quantify NSP activities as described previously ([Basso et al., 2022]). […] The specific NSP activity in each sample was calculated as the total activity minus the activity in the presence of a specific NSP inhibitor (if used), including elastase inhibitor (Abcam) for NE, sivelestat (Abcam) for PR3, and cathepsin G inhibitor I (Cayman Chemical; Ann Arbor, MI) for CatG. […] A portion of each cell lysate sample was retained for protein quantification using a Pierce™ BCA Protein Assay Kit (Thermo Fisher). […]

The next test deals with PR3. In words: Bone marrow PR3 activity after repeated dosing, C57BL/6 mice. It is filed as in vivo. As to conditions: for Reduction of PR3 activity vs vehicle / Change From Vehicle Control (%) PR3: 7 days. How it is done:
Briefly, animals were weighed and randomized into different treatment groups. In total, three different dosing levels of brensocatib were tested in each species and strain; each QD dosing level was equivalent to 1.5-times the matching daily BID dose. For BID dosing, the second daily dose was administered 8-h post the morning dose. C57BL/6 mice were dosed either BID or QD for 7 consecutive days at 0/0, 0.5/0.75, 2/3, and 20/30 mg/kg/day (BID/QD). BALB/c mice were dosed for 7 consecutive days at 0/0, 0.2/0.3, 2/3, and 20/30 mg/kg/day (BID/QD). SD rats were dosed for 9 consecutive days at 0/0, 0.2/0.3, 2/3, and 20/30 mg/kg/day (BID/QD). Wistar rats were dosed for 7 consecutive days at 0/0, 0.2/0.3, 2/3, and 20/30 mg/kg/day (BID/QD).
At the completion of the study, animals were sacrificed 16–24 h post their final dose. The hind limb bones (femurs and tibias) were collected at necropsy for bone marrow analysis of NSP activities by kinetic enzymatic assays ([Basso et al., 2022]). See section Quantification of Bone Marrow NSP Activities for details.
For the mice, each animal had the femurs and tibias of both hind limbs harvested. For the rat, the femur and tibia from a single hind limb per animal was harvested. Bones were kept on wet ice until processing for bone marrow collection. In brief, bone cutters were used to cut the epiphysis (knobby ends) off the long bones to expose the bone marrow filled cavity. Each bone cavity was then flushed with 5 mL/bone (mouse) or 10 mL/bone (rat) of ice-cold RPMI media through a […] and collected in a 50-mL conical tube. Cells were spun down at 2,500 × g at 4°C for 5 min and the supernatant was aspirated. After which, bone marrow cells were lysed with 1X red blood cell (RBC) lysis buffer (Abcam, ab204733) to eliminate contaminating RBCs and washed with PBS to remove any residual RBC lysis buffer. The resulting white blood cells (WBC) were subsequently lysed with 1% (v/v) Triton X-100 in PBS. Lysates were added to 96-well plates and stored at −80°C until NSP analyses.
Bone marrow lysates prepared as described above were diluted and plated onto 96-well assay plates to quantify NSP activities as described previously ([Basso et al., 2022]). Briefly, peptide substrates for NE (N-Methoxysuccinyl-Ala-Ala-Pro-Val-7-amido-4-methylcoumarin; Sigma; St. Louis, MO; Excitation/Emission at 350/450 nm), PR3 ((7-Methoxycoumarin-4-yl)acetyl-lysyl-(picolinoyl)-Tyr-Asp-Ala-Lys-Gly-Asp-N-3-(2-4-dinitrophenyl)-2-3-diaminopropyonyl-NH2); GenScript; Piscataway, NJ; Excitation/Emission at 340/430 nm), and CatG (N-Succinyl-Ala-Ala-Pro-Phe p nitroanilide; Sigma; Absorbance at 405 nm) were added at a final assay concentration of 100 μM, 40 μM, and 200 μM, respectively, and either fluorescence or absorbance was quantified using a Synergy microplate reader (BioTek; Winooski, VT). The specific NSP activity in each sample was calculated as the total activity minus the activity in the presence of a specific NSP inhibitor (if used), including elastase inhibitor (Abcam) for NE, sivelestat (Abcam) for PR3, and cathepsin G inhibitor I (Cayman Chemical; Ann Arbor, MI) for CatG. NSP concentrations were interpolated based on their activities relative to the standard curves created using active human NE protein (Sigma), active human PR3 protein (Sigma), and active human CatG protein (Sigma), respectively. Due to unavailability of commercial mouse and/or rat NE, PR3, and CatG proteins, the corresponding human proteins were used instead since their catalytic ability is considered to be conserved across species. A portion of each cell lysate sample was retained for protein quantification using a Pierce™ BCA Protein Assay Kit (Thermo Fisher). The NSP activities were normalized for the cell lysate protein concentrations.
The Pierce™ BCA Protein Assay Kit was used to measure the total protein of the samples after lysis to allow for subsequent normalization. […]

Data on 1 molecule can be found in paper PMC10394516, “The pharmacokinetic profile of brensocatib and its effect on pharmacodynamic biomarkers including NE, PR3, and CatG in various rodent species” (Frontiers in Pharmacology, 2023).

Take `Cn1c(=O)oc2ccc(-c3ccc(C[C@@H](C#N)NC(=O)[C@@H]4CNCCCO4)cc3)cc21` [brensocatib]: the “Time to full recovery of NSP activity (visually)” value in the test with NSPs (NE, PR3, CatG) is 6–8 days post final dose. In addition, the results for the “Reduction of PR3 activity vs vehicle” value in the test with PR3 (BID highest dose (20 mg/kg/day)) and in the test with PR3 (QD highest dose (30 mg/kg/day)) were 80% and 65%, respectively. The “Combined BID and QD percent reduction, PR3” value in the test with PR3 (highest dose level 20/30 (BID/QD) mg/kg/day) came to 71%. For the same molecule, the “Change From Vehicle Control (%) PR3” value in the test with PR3 (oral BID 0.5 mg/kg/day, 16 h post final dose) is 9% (p = 0.8059); with PR3 (oral BID 2 mg/kg/day, 16 h post final dose) it was −44% (p = 0.0041); in the test on PR3 (oral BID 20 mg/kg/day, 16 h post final dose), −80% (p < 0.0001); in the test on PR3 (oral QD 0.75 mg/kg/day, 24 h post final dose) it was “+2% (p = 0.9977)”; in the test with PR3 (oral QD 3 mg/kg/day, 24 h post final dose) it was −46% (p = 0.0008); in the test with PR3 (oral QD 30 mg/kg/day, 24 h post final dose), −65% (p < 0.0001).
